± gives the standard deviation of the averaged measurements.
Tests used:
Settings in all cases: 72 h
HepG2 [1] = test: relative viability EC50 (midpoint between 100% and the lowest measured viability); higher = less toxic
Calu-3 [2] = test: as above
U2OS [3] = test: as above
Caco-2 [4] = test: as above
Vero E6 [5] = test: as above
HepG2 [6] = test: cell viability relative to DMSO; higher = less toxic
Calu-3 [7] = test: as above
U2OS [8] = test: as above
Caco-2 [9] = test: as above
Vero E6 [10] = test: as above
HepG2 [11] = test: drug sensitivity score (DSS) for viability; higher = more toxic; extreme values may be limits of the assay
Calu-3 [12] = test: as above
U2OS [13] = test: as above
Caco-2 [14] = test: as above
Vero E6 [15] = test: as above

Structure (SMILES) | relative viability EC50 (HepG2 [1]) [µM] | relative viability EC50 (Calu-3 [2]) [µM] | relative viability EC50 (U2OS [3]) [µM] | relative viability EC50 (Caco-2 [4]) [µM] | relative viability EC50 (Vero E6 [5]) [µM] | cell viability (HepG2 [6]; 1 nM) [%] | cell viability (HepG2 [6]; 10 nM) [%] | cell viability (HepG2 [6]; 100 nM) [%] | cell viability (HepG2 [6]; 1000 nM) [%] | cell viability (HepG2 [6]; 10000 nM) [%] | cell viability (Calu-3 [7]; 1 nM) [%] | cell viability (Calu-3 [7]; 10 nM) [%] | cell viability (Calu-3 [7]; 100 nM) [%] | cell viability (Calu-3 [7]; 1000 nM) [%] | cell viability (Calu-3 [7]; 10000 nM) [%] | cell viability (U2OS [8]; 1 nM) [%] | cell viability (U2OS [8]; 10 nM) [%] | cell viability (U2OS [8]; 100 nM) [%] | cell viability (U2OS [8]; 1000 nM) [%] | cell viability (U2OS [8]; 10000 nM) [%] | cell viability (Caco-2 [9]; 1 nM) [%] | cell viability (Caco-2 [9]; 10 nM) [%] | cell viability (Caco-2 [9]; 100 nM) [%] | cell viability (Caco-2 [9]; 1000 nM) [%] | cell viability (Caco-2 [9]; 10000 nM) [%] | cell viability (Vero E6 [10]; 1 nM) [%] | cell viability (Vero E6 [10]; 10 nM) [%] | cell viability (Vero E6 [10]; 100 nM) [%] | cell viability (Vero E6 [10]; 1000 nM) [%] | cell viability (Vero E6 [10]; 10000 nM) [%] | drug sensitivity score (HepG2 [11]) | drug sensitivity score (Calu-3 [12]) | drug sensitivity score (U2OS [13]) | drug sensitivity score (Caco-2 [14]) | drug sensitivity score (Vero E6 [15])
Cc1nnc(C(=O)NC(C)(C)c2nc(C(=O)NCc3ccc(F)cc3)c(O)c(=O)n2C)o1 [raltegravir] | > 10 | > 10 | > 10 | > 10 | > 10 | 100 | 102 | 97.6 | 118 | 90.3 | 104 | 99.3 | 99 | 107 | 104 | 104 | 95.9 | 100 | 97.5 | 100 | 102 | 104 | 94.4 | 94.7 | 99.7 | 101 | 99.3 | 95.7 | 97.5 | 94.4 | 0 | 0 | 0 | 0 | 0
CN(C)Cc1ccc(S(=O)(=O)n2ccc(/C=C/C(=O)NO)c2)cc1 [resminostat] | 1.38 | 1.77 | 2.14 | 3.03 | 1.81 | 110 | 110 | 94 | 69.2 | 7.9 | 102 | 96.3 | 92.9 | 86.2 | 27.9 | 95.2 | 105 | 97.9 | 88.1 | 5.5 | 99.6 | 101 | 103 | 98.4 | 12.4 | 106 | 103 | 101 | 82.1 | 2 | 9.1 | 6.2 | 7.2 | 5.1 | 8.4
Cc1cc(OCC(=O)O)cc(C)c1Cc1ccc(O)c(C(C)C)c1 [sobetirome] | > 10 | > 10 | > 10 | > 10 | > 10 | 100 | 103 | 96 | 96.2 | 85 | 102 | 96.6 | 105 | 98.7 | 101 | 97.5 | 99.9 | 99.5 | 99.5 | 100 | 102 | 95.7 | 92.1 | 94.7 | 90.5 | 102 | 99.3 | 87.9 | 96.4 | 85.3 | 0.4 | 0 | 0 | 0 | 0.3
Nc1ccc(S(=O)(=O)Nc2nccs2)cc1 [sulfathiazole] | > 10 | > 10 | > 10 | > 10 | > 10 | 102 | 95 | 94.2 | 105 | 116 | 86.1 | 94.9 | 92.2 | 98 | 89.3 | 94.2 | 98.5 | 94.3 | 93.6 | 102 | 95.8 | 96.1 | 95.1 | 93.6 | 99 | 96.9 | 100 | 97.5 | 104 | 102 | 0 | 0 | 0 | 0 | 0
CCOCC(O)COc1ccc(NC(=O)CC[S+](C)C)cc1 (stereo not given) [suplatast] | > 10 | > 10 | > 10 | > 10 | > 10 | 93.8 | 94.3 | 85 | 91.2 | 94.1 | 94.8 | 93.1 | 93.4 | 102 | 101 | 99.1 | 96.4 | 100 | 100 | 101 | 95.9 | 99 | 99.1 | 98.5 | 104 | 87.8 | 98.2 | 93.3 | 94.8 | 104 | 0 | 0 | 0 | 0 | 0
CN1C(=O)C[C@@H](C(=O)N[C@@H](Cc2c[nH]cn2)C(=O)N2CCC[C@H]2C(N)=O)NC1=O [taltirelin] | > 10 | > 10 | > 10 | > 10 | > 10 | 106 | 99.6 | 99 | 104 | 108 | 96.3 | 94.7 | 101 | 97.8 | 84.9 | 105 | 96.2 | 99.5 | 98.1 | 101 | 101 | 100 | 97.2 | 97.6 | 95.9 | 99 | 96.8 | 104 | 97.4 | 98.3 | 0 | 0.5 | 0 | 0 | 0
CCCCCCCCCCCCCCSCC(=O)O [tetradecylthioacetic-acid] | > 10 | > 10 | > 10 | > 10 | > 10 | 90.8 | 102 | 86.4 | 102 | 119 | 95.2 | 102 | 99.1 | 108 | 109 | 98.1 | 101 | 93.5 | 97.2 | 100 | 93.1 | 104 | 104 | 83.9 | 108 | 103 | 95.6 | 98.2 | 99.2 | 94.6 | 0 | 0 | 0 | 0 | 0
c1ccc(C2CN3CCSC3=N2)cc1 (stereo not given) [tetramisole] | > 10 | > 10 | > 10 | > 10 | > 10 | 101.9 ± 0.14 | 95.6 ± 0.57 | 96.2 ± 3.5 | 93.1 ± 5.7 | 100 ± 4.2 | 98.7 ± 5 | 97.85 ± 0.92 | 99.7 ± 1.3 | 110 ± 12 | 94.7 ± 1.6 | 99.8 ± 1.8 | 98.2 ± 2.3 | 98.3 ± 1.8 | 97.9 ± 1.1 | 100 ± 6.9 | 95 ± 7.1 | 102 ± 11 | 92.65 ± 0.78 | 91.9 ± 8.6 | 96.5 ± 1.7 | 93.8 ± 2.8 | 98.5 ± 1.6 | 96.2 ± 3.3 | 96.8 ± 0.57 | 101 ± 1.1 | 0 | 0 | 0 | 0.85 ± 1.2 | 0
O=C(O)CNC(=O)C(CS)Cc1ccccc1 (stereo not given) [thiorphan] | > 10 | > 10 | > 10 | > 10 | > 10 | 94.2 | 90.9 | 99.7 | 92.1 | 95.7 | 103 | 99.5 | 98.6 | 95.5 | 114 | 99.4 | 103 | 98.7 | 98.7 | 96.9 | 107 | 99 | 86.2 | 102 | 110 | 107 | 95 | 94.3 | 101 | 104 | 0 | 0 | 0 | 0 | 0
O=C(Cn1c(=O)sc2ccc(Cl)cc21)N1CCN(CCO)CC1 [tiaramide] | > 10 | > 10 | > 10 | > 10 | > 10 | 94.9 | 109 | 108 | 88.8 | 89.3 | 92.2 | 101 | 90.6 | 92.4 | 105 | 101 | 101 | 98.7 | 100 | 98.7 | 112 | 91.4 | 96.7 | 96.3 | 101 | 107 | 95.2 | 94.3 | 101 | 93.4 | 0.2 | 0 | 0 | 0 | 0
Cc1ccccc1C(=O)Nc1ccc(C(=O)N2CCCC(O)c3cc(Cl)ccc32)c(C)c1 (stereo not given) [tolvaptan] | > 10 | > 10 | > 10 | > 10 | > 10 | 99.7 | 93 | 96.4 | 106 | 110 | 91 | 86.3 | 91.7 | 78.8 | 102 | 94.2 | 92.1 | 103 | 97.4 | 96.7 | 100 | 96.4 | 90.1 | 89.8 | 94.1 | 99.4 | 100 | 93.4 | 98.3 | 104 | 0 | 0.5 | 0 | 0.1 | 0
Cn1c(=O)cc(N2CCC[C@@H](N)C2)n(Cc2cc(F)ccc2C#N)c1=O [trelagliptin] | > 10 | > 10 | > 10 | > 10 | > 10 | 96.7 | 99.1 | 88.3 | 96.5 | 88.8 | 98.9 | 110 | 105 | 102 | 107 | 104 | 95.6 | 96.6 | 95.1 | 106 | 101 | 98.9 | 92.3 | 104 | 95.6 | 102 | 98.4 | 99.2 | 103 | 98.2 | 0 | 0 | 0 | 0 | 0
COc1cc(C(=O)NC2CCCNC2)cc(OC)c1OC (stereo not given) [troxipide] | > 10 | > 10 | > 10 | > 10 | > 10 | 103 | 109 | 97.4 | 103 | 104 | 97.5 | 91.3 | 94 | 106 | 97.8 | 106 | 96.3 | 102 | 98.8 | 101 | 99 | 103 | 98.4 | 97.4 | 99.6 | 103 | 109 | 101 | 102 | 98.4 | 0 | 0 | 0 | 0 | 0
Clc1ccc(Nc2nnc(Cc3ccncc3)c3ccccc23)cc1 [vatalanib] | > 10 | > 10 | > 10 | > 10 | > 10 | 101 | 92.4 | 107 | 102 | 83 | 95.9 | 89.8 | 97.5 | 102 | 90.3 | 103 | 100 | 100 | 101 | 92.7 | 98.6 | 99.3 | 102 | 94.7 | 84.5 | 95.9 | 93.8 | 89 | 88.8 | 90 | 0.3 | 0 | 0 | 0.7 | 0.4
Clc1cccc(Cl)c1CSc1nnc(-c2cnccn2)s1 [yoda-1] | > 10 | > 10 | > 10 | > 10 | > 10 | 84.7 | 100 | 97.6 | 102 | 91 | 98.8 | 91.1 | 97 | 98.8 | 91 | 101 | 98.9 | 90.6 | 92 | 93 | 100 | 95.3 | 94.7 | 92.6 | 79.6 | 97.4 | 100 | 94.2 | 96 | 94 | 0 | 0 | 0 | 0.9 | 0

Source: the supplement of paper PMC13380429
